Source: patent publication US11945833B2, “Prodrugs of L-BHDU and methods of treating viral infections” (priority 2021, dated 2024)
Entries after “also recorded” stand apart in the source; their conditions may differ. Where two headings read alike, the source gives them in different places.

Columns and labels:
HSV-1 = experiment: Anti-HSV-1 activity in Vero cells; format: cell-based, herpes simplex virus
Procedure: Additionally, all synthesized compounds were also tested in vitro against herpes simplex viruses (HSV-1, oral herpes) in Vero cells, FIG. 8.

[1] = system: human fibroblast (HFFs) cells; format: cell-based
Procedure: The cellular toxicity of synthesized analogs was determined on low passage of human fibroblast (HFFs) cells by performing 72 h of neutral red dye uptake and MTT cell proliferation assays.

HSV1 = experiment: Topical treatment of HSV1 in human skin explant model; conditions: formulated in cocoa butter
From the text: (§1) Each compound was formulated in Cocoa Butter and applied topically. POM was formulated in equimolar concentrations to 0.1% L-BHDU.

VZV-ORF57-Luc [2] = experiment: NuSkin mouse model of VZV replication (adult human skin xenografts), bioluminescence imaging; format: in vivo, Athymic Nude mice; conditions: s.c. once daily days 3-9 post-infection, equimolar to cidofovir 10 mg/kg
Procedure: Mice were treated with vehicle or drugs, and virus yield was measured by bioluminescence imaging. VZV growth rate for individual mice (symbols) and the average for the group (bars) are shown in (A) and (B). […] The overall significance on day 10 post-inoculation (DPI 10) is p=0.0352 (one-way ANOVA). ** p<0.01 for OED-L-BHDU & POM-L-BHDU and (student's t test with Welch's correction). Cidofovir group (i.p.) has an average fold change of 2-5 on DPI 10. (B).

VZV [3] = conditions: cited from earlier work; for in vivo reduction in VZV growth compared to ACV and VACV: previous in vivo studies
VZV-ORF57-Luc [4] = experiment: Antiviral activity in ARPE-19 cells infected with VZV-ORF57-Luc; format: cell-based, Varicella-zoster virus
Procedure: To enhance the antiviral activity octadecyloxyethyl-L-BHDU (ODE-L-BHDU, 5) and hexadecyloxypropyl-L-BHDU (HDP-L-BHDU, 6), POM-L-BHDU (8), and POC-L-BDHU (14) (FIGS. 1-3, Schemes 1-3) prodrugs were synthesized with modifications to increase bioavailability and cell penetration. Their antiviral activity was evaluated in ARPE-19 cells infected with VZV-ORF57-Luc, a new reporter virus.

HSV-2 = experiment: Anti-HSV-2 activity in Vero cells, bioluminescence imaging; format: cell-based, herpes simplex virus; conditions: listed as L-BDHU
Procedure: HSV-2 yield was determined by bioluminescence imaging. Each point represents the mean±standard deviation of a triplicate sample
Furthermore, antiviral activity of these analogs was tested in vitro against the HSV-2 (genital herpes) in Vero cells using acyclovir as a standard drug reference. […] All other analogs, including L-BDHU, were found ineffective against the HSV-2 (FIG. 11, Table 3). After these findings, it was determined that POM-L-BHDU […] has potential against the HSV-1 & HSV-2. Further in vivo evaluation of POM prodrug of the L-BDHU will confirm activity.

[5] = target: T1, dihydropyridine dehydrogenase (Homo sapiens, UniProt Q12882); conditions: cited from earlier work
T1 sequence (Q12882 4-1025): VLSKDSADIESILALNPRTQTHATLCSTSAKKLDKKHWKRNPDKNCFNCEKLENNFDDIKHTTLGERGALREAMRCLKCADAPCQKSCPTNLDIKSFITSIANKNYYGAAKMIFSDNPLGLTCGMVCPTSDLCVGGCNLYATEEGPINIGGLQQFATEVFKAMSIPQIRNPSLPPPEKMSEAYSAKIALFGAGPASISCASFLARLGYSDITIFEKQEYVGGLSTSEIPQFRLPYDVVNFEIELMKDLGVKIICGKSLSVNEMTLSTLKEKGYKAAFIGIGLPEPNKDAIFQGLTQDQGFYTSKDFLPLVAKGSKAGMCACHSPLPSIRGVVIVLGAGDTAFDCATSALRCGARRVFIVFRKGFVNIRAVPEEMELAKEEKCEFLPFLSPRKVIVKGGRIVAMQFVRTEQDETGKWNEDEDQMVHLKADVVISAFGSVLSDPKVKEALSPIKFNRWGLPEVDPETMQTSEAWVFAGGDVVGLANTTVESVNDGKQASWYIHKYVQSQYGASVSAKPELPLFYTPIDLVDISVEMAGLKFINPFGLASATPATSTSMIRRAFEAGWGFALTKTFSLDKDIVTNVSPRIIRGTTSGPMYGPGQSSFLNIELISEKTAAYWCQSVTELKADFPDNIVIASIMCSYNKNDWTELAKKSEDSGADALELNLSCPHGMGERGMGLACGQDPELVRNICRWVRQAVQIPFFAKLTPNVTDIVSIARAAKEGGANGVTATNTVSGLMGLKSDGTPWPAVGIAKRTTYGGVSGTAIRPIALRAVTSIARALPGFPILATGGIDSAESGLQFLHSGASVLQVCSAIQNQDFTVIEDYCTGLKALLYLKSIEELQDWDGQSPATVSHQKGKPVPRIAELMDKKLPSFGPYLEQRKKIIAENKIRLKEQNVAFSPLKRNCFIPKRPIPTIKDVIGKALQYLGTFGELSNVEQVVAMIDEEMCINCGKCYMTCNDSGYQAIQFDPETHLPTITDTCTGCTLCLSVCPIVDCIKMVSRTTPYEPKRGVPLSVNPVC

VZV [6] = experiment: Topical treatment of VZV in human skin explant model; conditions: formulated in cocoa butter
From the text: as §1

[7] = cited from earlier work
VZV-BAC-Luc = conditions: previous assay, HFFs infected with VZV-BAC-Luc; read-out: EC50 against VZV in HFFs; cited from earlier work
[8] = system: human foreskin fibroblast (HFFS) cells; conditions: cited from earlier work

| Structure (SMILES) | anti-HSV-1 activity (in words) (HSV-1) | EC50 (HSV-1; read-out: EC50 against HSV-1) | CC50 [1] | effect on cellular proliferation [1] | prevention of HSV1 spread in adult human skin (HSV1) | in vivo antiviral activity against VZV (in words) (VZV-ORF57-Luc [2]) | dose effective in SCID-Hu mouse model of VZV replication (VZV [3]; human fetal skin) | in vivo reduction in VZV growth compared to ACV and VACV (VZV [3]) | EC50 (VZV-ORF57-Luc [4]; read-out: EC50 against VZV in ARPE-19s) | EC50 (VZV-ORF57-Luc [4]; read-out: EC50 against VZV-ORF57-Luc) | anti-HSV-2 activity (in words) (HSV-2) | CC50 (Vero Cells) | inhibition of dihydropyridine dehydrogenase activity [5] | prevention of VZV spread in adult human skin (VZV [6]) | levels in mouse organs [7] | well tolerated dose ([7]; mouse, in vivo) | EC50 (VZV-BAC-Luc) | CC50 [8] |
| --- | --- | --- | --- | --- | --- | --- | --- | --- | --- | --- | --- | --- | --- | --- | --- | --- | --- | --- |
| O=c1[nH]c(=O)n([C@@H]2CO[C@H](CO)O2)cc1/C=C/Br [L-BHDU] | good activity | 7 nM | > 100 µM | did not affect cellular proliferation | highly effective | ineffective | 15 mg/kg | significant reduction in VZV growth | 22 nM | 22 nM | ineffective; also recorded: inactive | > 100 µM | does not inhibit | highly effective | reached high levels in mouse organs but not in the brain | up to 150 mg/kg | 220 nM |  |
| CC(C)C(N)C(=O)OCC1OCC(n2cc(/C=C/Br)c(=O)[nH]c2=O)O1 [L-valyl-L-BHDU] |  |  |  |  |  |  |  | significant reduction in VZV growth |  |  |  |  |  |  |  |  | 30 nM | 200 µM |
